Where two headings read alike, the source gives them in different places.
Legend:
[1] = tested on: H146 small-cell lung cancer xenograft; parameters: method as in PMID 23448298; conditions: H146 xenograft in SCID mice; cited from earlier work
Bcl-xL [2] = molecular target: Bcl-xL (Homo sapiens, UniProt Q07817); conditions: cited from earlier work
Bcl-2 [3] = molecular target: Bcl-2 (Homo sapiens, UniProt P10415); conditions: cited from earlier work
[4] = tested on: four small-cell lung cancer cell lines sensitive to ABT-263; parameters: method as in PMID 23448298; conditions: cited from earlier work
[5] = tested on: MCL1-wild-type (WT) MEF cells; assay: cell growth inhibition, WST assay, wild-type MEF; format: cell-based; conditions: Mus musculus, 72 h, 3 days
Experimental: (§1) All the SCLC cell lines were purchased from American Type Culture Collection (Manassas, VA) and cultured as recommended. All these cell lines were passaged fewer than 6 months after purchase. MCL1 knockout (MCL1^−/−) MEF cells were kindly provided by Dr. David Huang (The Walter and Eliza Hall Institute of Medical Research, Melbourne, Australia). Cell growth inhibition was evaluated by means of a WST-8 assay (Dojindo, Rockville, MD) as described previously. Mitochondrial membrane potential was determined by JC-1 staining using a JC-1 Mitochondrial Membrane Potential Assay kit (Cayman). Apoptosis analysis was performed using an Annexin V/propidium iodide (PI) apoptosis detection kit (Roche Applied Sciences, Indianapolis, IN).
(§2) (B) MCL1^−/− cells were treated with 100 nM of BM-1197 for 16 h and stained with Annexin V/PI for flow cytometry. […] They are given in the order upper left, upper right, lower left, lower right.

H1963 = assay: SCLC cell growth inhibition (WST-8), H1963; format: cell-based; conditions: Homo sapiens, NCI-H1963; 96-h incubation, means ± SD (n = 3–6)
Experimental: as §1

SW1271 = assay: SCLC cell growth inhibition (WST-8), SW1271; format: cell-based; conditions: Homo sapiens, 96-h incubation, means ± SD (n = 3–6)
Experimental: as §1

H82 = assay: SCLC cell growth inhibition (WST-8), H82; format: cell-based; conditions: Homo sapiens, NCI-H82; 96-h incubation, means ± SD (n = 3–6)
Experimental: as §1

DMS79 = assay: SCLC cell growth inhibition (WST-8), DMS79; format: cell-based; conditions: Homo sapiens, DMS-79; 96-h incubation, means ± SD (n = 3–6)
Experimental: as §1

[6] = tested on: MCL1-deficient (MCL1−/−) MEF cells; assay: cell growth inhibition, WST assay, MCL1-deficient MEF; format: cell-based, mouse; conditions: Mus musculus, MEF, 72 h; 3 days, WST assay
Experimental: as §1, §2

H1417 = assay: SCLC cell growth inhibition (WST-8), H1417; format: cell-based; conditions: Homo sapiens, NCI-H1417; 96-h incubation, means ± SD (n = 3–6)
Experimental: as §1

H196 = assay: SCLC cell growth inhibition (WST-8), H196; format: cell-based; conditions: Homo sapiens, NCI-H196; 96-h incubation, means ± SD (n = 3–6)
Experimental: as §1

Bcl-xL [7] = molecular target: T1, Bcl-xL (Mus musculus, UniProt Q64373); assay: cellular thermal shift assay (CETSA), Bcl-xL; format: cell-based; conditions: 1 µM, 1 h, MEF MCL1−/− cells
T1 construct: endogenous in cells; host or cells: MEF MCL1-/- cells
T1 sequence (Q64373 whole entry): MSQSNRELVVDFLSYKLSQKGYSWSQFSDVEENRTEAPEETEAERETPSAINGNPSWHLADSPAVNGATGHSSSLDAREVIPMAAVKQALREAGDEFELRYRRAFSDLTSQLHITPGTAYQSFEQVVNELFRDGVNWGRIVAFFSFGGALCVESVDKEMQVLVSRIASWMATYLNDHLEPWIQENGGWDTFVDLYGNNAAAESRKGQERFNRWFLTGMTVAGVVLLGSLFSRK
Experimental: (§3) Drug-target engagement was assessed using CETSA as described by Molina et al.. Briefly, cells were treated with drugs for 1 h, then harvested, washed with PBS, and resuspended in PBS. The resuspended cells were freeze-thawed 4 times. The soluble fraction (lysate) was separated from cell debris by centrifugation at 20000×g for 20 minutes at 4°C and then analyzed by Western blots.
(§4) Drug-treated cells were heated at gradient temperature from 42°C to 62°C for 3 min then freeze-thawed 4 times. The soluble fractions of the lysed cells were analyzed by immunoblotting. (B) MEF MCL1^− ^/− cells were treated with drugs at the indicated doses for 1 h before collected for CETSA.

H146 xenograft tumors = assay: H146 subcutaneous xenograft model; format: in vivo, SCID mice
Experimental: Tumor sizes were measured 2–3 times per week. Tumor growth inhibition was calculated by using the formula: 100% (mean volume of controls - mean volume of treated)/mean volume of controls.
Figure 10 In vivo antitumor activity of BM-1197. […] Data shown are mean ± SEM for 6–8 mice. (E & F) SCID mice bearing H146 or H1963 cells were treated with 10 mg/kg of BM-1197 IV for the indicated times. Tumor lysates were analyzed by immunoblotting.

Bcl-2 [8] = molecular target: T2, Bcl-2 (Mus musculus, UniProt P10417); assay: cellular thermal shift assay (CETSA), Bcl-2; format: cell-based; conditions: 1 µM, 1 h, MEF MCL1−/− cells
T2 construct: endogenous in cells; host or cells: MEF MCL1-/- cells
T2 sequence (P10417 whole entry): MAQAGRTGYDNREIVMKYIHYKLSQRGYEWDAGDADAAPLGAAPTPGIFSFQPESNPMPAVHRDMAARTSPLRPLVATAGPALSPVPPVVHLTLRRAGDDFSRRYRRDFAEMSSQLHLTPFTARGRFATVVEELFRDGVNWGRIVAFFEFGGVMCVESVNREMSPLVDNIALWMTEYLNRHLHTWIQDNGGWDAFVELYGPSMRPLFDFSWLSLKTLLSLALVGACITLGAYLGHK
Experimental: as §3, §4

DMS273 = assay: SCLC cell growth inhibition (WST-8), DMS273; format: cell-based; conditions: Homo sapiens, DMS-273; 96-h incubation, means ± SD (n = 3–6)
Experimental: as §1

DMS53 = assay: SCLC cell growth inhibition (WST-8), DMS53; format: cell-based; conditions: Homo sapiens, DMS-53; 96-h incubation, means ± SD (n = 3–6)
Experimental: as §1

H889 = assay: SCLC cell growth inhibition (WST-8), H889; format: cell-based; conditions: Homo sapiens, NCI-H889; 96-h incubation, means ± SD (n = 3–6)
Experimental: as §1

H187 = assay: SCLC cell growth inhibition (WST-8), H187; format: cell-based; conditions: Homo sapiens, NCI-H187; 96-h incubation, means ± SD (n = 3–6)
Experimental: as §1

H146 = assay: SCLC cell growth inhibition (WST-8), H146; format: cell-based; conditions: Homo sapiens
Experimental: as §1
Data are representative of two independent experiments.

H211 = assay: SCLC cell growth inhibition (WST-8), H211; format: cell-based; conditions: Homo sapiens, NCI-H211; 96-h incubation, means ± SD (n = 3–6)
Experimental: as §1

Chain of Bcl-2 (Homo sapiens, UniProt P10415) (P10415 whole entry): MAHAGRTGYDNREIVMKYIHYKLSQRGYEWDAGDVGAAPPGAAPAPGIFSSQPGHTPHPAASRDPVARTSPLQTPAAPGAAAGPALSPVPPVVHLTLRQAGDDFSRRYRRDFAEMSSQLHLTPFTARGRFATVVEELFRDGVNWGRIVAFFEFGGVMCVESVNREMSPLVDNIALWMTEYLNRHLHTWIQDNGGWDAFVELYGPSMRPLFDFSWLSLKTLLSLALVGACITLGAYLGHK
Chain of Bcl-xL (Homo sapiens, UniProt Q07817) (Q07817 whole entry): as the sequence (Q64373 whole entry) above, with E40G, A43S, R45M, S168A, D193E counted along it

In the case of `Cc1c(C(=O)NS(C)(=O)=O)c(-c2cccc(N3CCN(c4ccc(NS(=O)(=O)c5ccc(N[C@H](CCN(C)C)CSc6ccccc6)c([N+](=O)[O-])c5)cc4)CC3)c2)c(-c2ccc(Cl)cc2)n1C(C)C` [BM-1074], the tumor regression [1] is given as “rapid, complete, and durable tumor regression”, the Ki (Bcl-xL [2]) is given as less than 0.001 µM and the Ki (Bcl-2 [3]) is given as less than 0.001 µM. The IC50 ([4]; four small-cell lung cancer cell lines sensitive to ABT-263, read-out: IC50 cancer cell growth) was 0.001 to 0.002 µM and the “times more potent than ABT-263” value ([4]; four small-cell lung cancer cell lines) was greater than 10 times.
For `CC1(C)CCC(c2ccc(Cl)cc2)=C(CN2CCN(c3ccc(C(=O)NS(=O)(=O)c4ccc(N[C@H](CCN5CCOCC5)CSc5ccccc5)c(S(=O)(=O)C(F)(F)F)c4)cc3)CC2)C1` [ABT-263, reference compound], the IC50 [5] was greater than 2 µM, the IC50 (H1963) was 0.03 ± 0.017 µM and the IC50 (SW1271) was greater than 2 µM. It also gave an IC50 (H82) greater than 2 µM, an IC50 (DMS79) of 0.43 ± 0.343 µM and an IC50 [6] of 0.041 ± 0.003 µM. For the same compound, the IC50 (H1417) was 0.079 ± 0.031 µM, the IC50 (H196) was greater than 2 µM and the “thermal stability of Bcl-xL protein” value (Bcl-xL [7]) was “enhanced”. For the same compound, the “tumors regrown 29 days after the last treatment” value (H146 xenograft tumors; 100 mg/kg daily oral dosing) was “Four out of 8”, the “tumors regrown 57 days after the last treatment” value (H146 xenograft tumors; 100 mg/kg daily oral dosing) was 7 of the 8 and the tumor regression (H146 xenograft tumors; 100 mg/kg daily oral dosing (5 days per week), 14 days after the start of the treatment) was “regressed H146 tumors to a barely palpable state”. The “weight loss compared to control group” value (H146 xenograft tumors; all dose-schedules in H146 model, no other signs of toxicity) was “no statistically significant weight loss”, the “thermal stability of Bcl-2 protein” value (Bcl-2 [8]) was “enhanced” and the IC50 (DMS273) was greater than 2 µM. It also gave an IC50 (DMS53) of 0.197 ± 0.05 µM, an IC50 (H889) of 0.03 ± 0.011 µM and an IC50 (H187) of 0.07 ± 0.029 µM. The IC50 (H146; NCI-H146, 96 h, read-out: IC50 (1% FBS), H146, 4 days, WST assay, 1% FBS) was 0.0035 µM, the IC50 (H146; NCI-H146, 96 h, read-out: IC50 (1% FBS+3% HSA), H146, 4 days, WST assay, 1% FBS+3% HSA) was 0.083 µM and the IC50 (H146; NCI-H146, 96 h, read-out: IC50 (10% FBS), H146, 4 days, WST assay, 10% FBS) was 0.0268 µM. The IC50 (H146; NCI-H146, 96 h, read-out: IC50 (50% FBS), H146, 4 days, WST assay, 50% FBS) was 0.0752 µM, the IC50 (H146; NCI-H146, 96-h incubation, means ± SD (n = 3–6), read-out: IC50 cell growth, H146) was 0.024 ± 0.012 µM and the IC50 (H211) was 0.066 ± 0.05 µM.
